The values below come from patent US20240301003A1 (NoNO Inc., priority 2021, published 2024).

For data set [1] the following is noted: cited from earlier work.
The next data set deals with plasmin (Homo sapiens, UniProt P00747). In words: in vitro. Particulars: isolated enzyme plasmin.
Data set [2] in a line: Renal biomarkers or electrolyte imbalance after administration to rats (Table 7). The class given is in vivo. Here is the method: NoNO42 was tested for effect on various renal biomarkers or electrolyte imbalance in comparison with nerinetide after administration to rats as shown in Table 7.
For data set [3] the following is noted: rat, in vivo; for Weight: iv.
The conditions of data set [4]: rat, in vivo.
Protocol: Blood plasma samples were collected before injection and at 10, 15, 20, 30, 45, 60 min post-dose. Each point represents the mean (±SD) of three animals per group.

Read-outs that look alike come from different tables or passages of the source. Where a SMILES comes first, the peptide text is derived from it.

Chain of plasmin (P00747 581-810 limits assumed, species assumed): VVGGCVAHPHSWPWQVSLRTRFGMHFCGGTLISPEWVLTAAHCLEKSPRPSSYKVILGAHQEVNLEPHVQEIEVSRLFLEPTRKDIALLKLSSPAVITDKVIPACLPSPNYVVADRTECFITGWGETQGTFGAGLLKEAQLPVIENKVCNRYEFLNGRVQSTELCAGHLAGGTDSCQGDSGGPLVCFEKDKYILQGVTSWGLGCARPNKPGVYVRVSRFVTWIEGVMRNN
Chain of plasmin (P00747 97-580 partner limits assumed, species assumed): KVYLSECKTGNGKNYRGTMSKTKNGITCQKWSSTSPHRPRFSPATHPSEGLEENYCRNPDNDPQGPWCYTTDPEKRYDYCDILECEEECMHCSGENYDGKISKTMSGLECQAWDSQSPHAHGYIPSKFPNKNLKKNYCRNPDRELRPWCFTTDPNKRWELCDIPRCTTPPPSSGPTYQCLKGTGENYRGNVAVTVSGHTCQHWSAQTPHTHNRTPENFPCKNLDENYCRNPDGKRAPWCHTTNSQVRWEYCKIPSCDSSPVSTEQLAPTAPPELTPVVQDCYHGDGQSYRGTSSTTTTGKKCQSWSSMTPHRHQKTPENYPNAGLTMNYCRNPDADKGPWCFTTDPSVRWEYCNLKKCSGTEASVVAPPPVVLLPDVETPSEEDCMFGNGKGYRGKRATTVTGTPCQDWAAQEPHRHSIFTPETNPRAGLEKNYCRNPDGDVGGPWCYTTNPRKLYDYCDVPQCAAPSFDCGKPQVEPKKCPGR

Broadly, the half-life is the time needed for the level to fall by half in the phase considered. As to `N[C@@H](Cc1ccc(O)c(O)c1)C(=O)O` [Levodopa], the half-life in data set [1] is 1.5 h.

Broadly, the amount remaining is the share of the starting amount still present when the sample was taken. Consider `CC[C@H](C)[C@H](NC(=O)[C@H](CO)NC(=O)[C@H](CO)NC(=O)[C@H](CC(C)C)NC(=O)[C@@H](CCCCN)NC(=O)[C@H](CCCNC(=N)N)NC(=O)[C@H](CCCNC(=N)N)NC(=O)[C@@H](CCCNC(=N)N)NC(=O)[C@H](CCC(N)=O)NC(=O)[C@@H](CCCNC(=N)N)NC(=O)[C@H](CCCNC(=N)N)NC(=O)[C@H](CCCCN)NC(=O)[C@H](CCCCN)NC(=O)[C@@H](CCCNC(=N)N)NC(=O)CNC(=O)[C@@H](N)Cc1ccc(O)cc1)C(=O)N[C@@H](CCC(=O)O)C(=O)N[C@@H](CO)C(=O)N[C@@H](CC(=O)O)C(=O)N[C@H](C(=O)O)C(C)C` [NoNO42] (HELM PEPTIDE1{Y.G.[dR].K.K.R.[dR].Q.[dR].R.R.[dK].L.S.S.I.E.S.D.V}$$$$V2.0; N-terminus and C-terminus assumed), for which the amount remaining at 0.5 h, 65 ug/ml on plasmin was roughly 100%. For the same compound, the “renal biomarkers or electrolyte imbalance in comparison with nerinetide” value in data set [2] (rat, in vivo) was “No significant difference was observed”. Besides, the Creatinine in data set [2] (rat, in vivo, iv, 3.8 mg/kg) was found to be 0.2 mg/dL; in data set [2] (rat, in vivo, iv, 7.6 mg/kg) it was 0.2 mg/dL. Further, the iCa came to 1.47 mmol/L in data set [2] (rat, in vivo, iv, 5.7 mg/kg); 1.43 mmol/L in data set [2] (rats, IV 3.8 mg/kg, Pre); 1.46 mmol/L in data set [2] (rats, IV 5.7 mg/kg, Day 14); 1.46 mmol/L in data set [2] (rats, IV 5.7 mg/kg, Pre); 1.46 mmol/L in data set [2] (rats, IV 7.6 mg/kg, Day 4). For the same compound, the tCO2 came to 33.7 mmol/L in data set [2] (rat, in vivo, iv, 7.6 mg/kg); 35.7 mmol/L in data set [2] (rats, IV 7.6 mg/kg, Day 4); 35.7 mmol/L in data set [2] (rats, IV 7.6 mg/kg, Day 14). The “Na+” value worked out at 137.3 mmol/L in data set [2] (rats, IV 3.8 mg/kg, Day 4); 137.3 mmol/L in data set [2] (rats, IV 5.7 mg/kg, Day 4); 137.3 mmol/L in data set [2] (rats, IV 7.6 mg/kg, Day 14). The Cl is 98.3 mmol/L in data set [2] (rats, IV 3.8 mg/kg, Pre) and 98.3 mmol/L in data set [2] (rats, IV 7.6 mg/kg, Day 14). The compound also had a Hgb in data set [2] (rats, IV 7.6 mg/kg, Day 14) of 13.4 g/dL. Moreover, in data set [3], the “weight gain compared with nerinetide” value is given as “No significant difference was seen”. The figures for the Weight in data set [3] (3.8 mg/kg), in data set [3] (5.7 mg/kg) and in data set [3] (7.6 mg/kg) were 342.3 grams, 341.7 grams and 331.0 grams, respectively. In data set [4], the “CMax of NoNO42 5.7 mg/kg versus nerinetide 7.6 mg/kg” value is reported as “same CMax”.
